# In patent publication US20110046039A1, “POST-EXPOSURE PROPHYLAXIS AND TREATMENT OF INFECTIONS” (priority 2007, published 2011):
# Where a SMILES comes first, the peptide text is derived from it. The star is where a group is joined. Cbz = O=C(OCc1ccccc1)*; CH2F = FC*
# What was measured:
# cultured macrophages = conditions: cited from earlier work
# [1] = system: livers of anthrax-challenged mice; conditions: mouse, in vivo; cited from earlier work
# anthrax spores = system: anthrax spores; parameters: species or system DBA/2 mice; conditions: mouse, in vivo
smiles,measurement,setting,value
"COC(=O)C[C@H](NC(=O)[C@H](C)NC(=O)[C@@H](NC(=O)OCc1ccccc1)C(C)C)C(=O)CF [z-VAD, z-Val-Ala-Asp(OMe)-fluoromethylketone] (Cbz-Val-Ala-Asp(OMe)-CH2F)",anti-apoptotic effect,cultured macrophages,protective anti-apoptopic effect
same,anti-apoptotic effect,[1],protective anti-apoptopic effect
"CNC(=O)[C@H]1O[C@@H](n2cnc3c(NCc4cccc(I)c4)nc(Cl)nc32)[C@H](O)[C@@H]1O [Cl-IB-MECA, 2-chloro-N^6-(3-iodobenzyl)-adenosine-5′-N-methyluronamide]",protection of exposed animals,anthrax spores,40%
same,protection of mice against post-exposure anthrax,anthrax spores,protect mice against post-exposure anthrax
O=C(O)c1cn(C2CC2)c2cc(N3CCNCC3)c(F)cc2c1=O [ciprofloxacin],animals protected,"anthrax spores; ip, 50 mg/kg",30%
"CNC(=O)[C@H]1O[C@@H](n2cnc3c(NCc4cccc(I)c4)ncnc32)[C@H](O)[C@@H]1O [IB-MECA, N^6-(3-iodobenzyl)-adenosine-5′-N-methyluronamide]",protection of mice against post-exposure anthrax,anthrax spores,protect mice against post-exposure anthrax
